Test results: US20230346827A1 (priority 2020, published 2023)

Columns and labels:
[1] = system: HUVEC and M1 macrophages + Zymosan (TLR2 ligand); experiment: BioMAP Mphg system; format: cell-based, human; details: annotated relative to vehicle controls
From the text: (§1) Cell types and stimuli used in each system are as follows: 3C system [HUVEC + (IL-1β, TNFα and IFNy)], 4H system [HUVEC + (IL-4 and histamine)], LPS system [PBMC and HUVEC + LPS (TLR4 ligand)], SAg system [PBMC and HUVEC + TCR ligands], BT system [CD19+ B cells and PBMC + (α-IgM and TCR ligands)], BF4T system [bronchial epithelial cells and HDFn + (TNFα and IL-4)], BE3C system [bronchial epithelial cells + (IL-1β, TNFα and IFNy)], CASM3C system [coronary artery smooth muscle cells + (IL-1 β, TNFα and IFNy)], HDF3CGF system [HDFn + (IL-1β, TNFα, IFNy, EGF, bFGF and PDGF-BB)], KF3CT system [keratinocytes and HDFn + (IL-1β, TNFα, IFNy and TGFβ)], MyoF system [differentiated lung myofibroblasts + (TNFα and TGFβ)] and Mphg system [HUVEC and M1 macrophages + Zymosan (TLR2 ligand)].
(§2) Systems are derived from either single cell types or co-culture systems. Adherent cell types are cultured in 96 or 384-well plates until confluence, followed by the addition of PBMC (SAg and LPS systems). […] Soluble factors from supernatants are quantified using either HTRF® detection, bead-based multiplex immunoassay or capture ELISA. Overt adverse effects of test agents on cell proliferation and viability (cytotoxicity) are detected by sulforhodamine B (SRB) staining, for adherent cells, and alamarBlue® reduction for cells in suspension. […]

[2] = system: rats with TGFβ1-induced trabecular meshwork fibrosis; experiment: Rodent model of anterior segment fibrosis / ocular hypertension (IC TGFβ1), s.c. LMW-DS 15 mg/kg daily; format: in vivo, rat; details: day 28
Description: Before induction of raised IOP, rats were randomly assigned into two groups (for saline vehicle and LMW-DS treatment). Induction of raised IOP was induced as previously described (Hill LJ, et al. Decorin reduces intraocular pressure and retinal ganglion cell loss in rodents through fibrolysis of the scarred trabecular meshwork. Investigative ophthalmology & visual science. 2015; 56(6): 3743-57). At 0 d, a 15° disposable blade was used to make a self-sealing tunnel through the cornea and this access point was employed for all subsequent twice weekly 3.5 µl IC injections of 5 ng/ml TGFβ1 (Peprotech, London, UK), carried out using sterile glass micropipettes (Harvard Apparatus, Kent, UK) over the 28 d experiment. IOP was also measured twice-weekly (immediately prior to the IC injection) throughout the 28 d experiment. […] At 14 d, rats received either subcutaneous injections of 15 mg/kg LMW-DS (Tikomed AB) or an equivalent saline volume, which continued daily for 14 d. OCT measurements of the RFNL were taken at 28 d as a surrogate for RGC density and ocular tissues from both groups were processed for immunohistochemistry to assess levels of TM fibrosis and RGC survival.
Adult 10 week old) male Sprague Dawley rats (Charles River, Kent, UK) were housed with free access to food and water under a 12 h dark/light cycle. Surgery was performed at the Biomedical Services Unit at the University of Birmingham (UK) in accordance with the Home Office guidelines set out in the 1986 Animal Act (UK) and the ARVO Statement for the Use of Animals in Ophthalmic and Vision Research. Intraocular injections, optical coherence tomography and intraocular pressure measurements were all taken whilst rats were under inhaled anesthesia using between 2% - 5% isofluorane / 98% - 95% O2 (National Vet Supplies, UK). The welfare of all rats was monitored closely at all times.
IOP measurements were obtained using an iCare Tonolab (ICare, Helsinki, Finland) calibrated for rats. IOP was recorded twice weekly between 9 am and 11 am throughout the 28 d experiment to avoid confounding circadian variabilities in IOP. Immediately after induction of anesthesia, six rebound measurements were taken with the tonometer from the central cornea and averaged to give a single reading (mmHg). Each graphical data point represents the mean ± SEM of three readings (6 rebounds) taken from each rat sequentially to ensure accurate measurements.
Retinal nerve fiber layer (RNFL) measurements were taken at 28 d using a Spectralis HRA3 confocal scanning laser ophthalmoscope (Heidelberg Engineering, Heidelberg, Germany). Images were obtained from rats whilst under inhalational anesthesia (as described in the ‘Animals and Surgery’ section above). OCT images were taken of the retina around the optic nerve head and in-built software was used to segment images and quantify the RNFL thickness.
Rats were euthanized by an intraperitoneal injection of sodium pentobarbital (National Veterinary Supplies) on 28 d and intracardially perfused with 4% paraformaldehyde (PFA; TAAB, Aldermaston, UK) in PBS whilst under terminal anesthesia. Eyes were removed and immersion fixed in 4% PFA in PBS for 2 hours at room temperature and then cryoprotected using increasing concentrations of (10%, 20% and 30% sucrose) for 24 hours each at 4° C. […]

[3] = system: PBMC and HUVEC + TCR ligands; experiment: BioMAP SAg system; format: cell-based, human; details: annotated relative to vehicle controls
From the text: as §1, §2

[4] = system: CD19+ B cells and PBMC + (α-IgM and TCR ligands); experiment: BioMAP BT system; format: cell-based, human; details: annotated relative to vehicle controls
From the text: as §1, §2

## sodium salt of dextran sulfate [LMW-DS]
[1]
  Increased biomarker activity: IL-8, CD69
[2]
  fibronectin in the TM (immunoreactive): 40.2 ± 4.0%
  laminin in the TM (immunoreactive): 25.6 ± 3.5%
  retinal nerve fibre layer (RNFL) thickness (OCT): 59.9 ± 1.2 µm
  surviving retinal ganglion cells (RGC): 12.6 ± 0.4 RGC/mm
[2]; IC TGFβ1 with SC LMW-DS from day 14
  IOP: 11.4 ± 0.2 mmHg
[3]
  Increased biomarker activity: IL-8
[4]
  Decreased biomarker activity: sIgG, sIL-17F
  Increased biomarker activity: sIL-17A
